Starred links: 1 amine or outer side, 2 acyl side, 3 side chain; linkers in the order of their positions; H or OH if unused. Non-standard residues stand in square brackets, D forms with d. Residues, ends and D or L forms follow the SMILES beside them. *: point of attachment. Dolaproine = CO[C@@H]([C@@H]1CCCN1)[C@@H](C)C(=O)O; X11 = O=C([C@@H](N[*:1])[C@H]1Cc2ccccc21)[*:2]; X2 = O=C([C@H](N[*:1])C1(c2ccccc2)CC1)[*:2]; Dil = CC[C@H](C)[C@H](NC)[C@@H](CC(=O)O)OC; Phe(4-NH2) = Nc1ccc(C[C@H](N)C(=O)O)cc1; X10 = C[C@@H](N*)[C@@H](O)c1ccccc1; Doe = c1ccc(C[C@H](N*)c2nccs2)cc1; NMeαMePro = CN1CCC[C@@]1(C)C(=O)*; d(αMeV) = CC(C)[C@@](C)(N)C(=O)O; d(αMeP) = C[C@]1(C(=O)O)CCCN1; αMeP = C[C@@]1(C(=O)O)CCCN1; X1 = CN1CCC[C@]1(C)C(=O)*; Iva = CC[C@](C)(N)C(=O)O; NMeAib = CNC(C)(C)C(=O)O; X4 = CN(C)C(C)(C)C(=O)*; X8 = C1=CC=CC(CCN*)C=C1; Aib = CC(C)(N)C(=O)O; OAll = C=CCO*; NHPr = CCCN*
What was measured:
Assay in all cases: In vitro cell assay, MTS cell viability 96 hours after treatment
Assay type in all cases: cell-based
N87 (gastric cancer) = settings: read-out: N87 GMEAN IC50, N87 cells; geometric mean; cytotoxic peptides
Procedure: (§1) Cells were treated with 3-fold serially diluted antibody-drug conjugates or free compounds (i.e., no antibody conjugated to the drug) in duplicate at 10 concentrations. Cell viability was determined by CellTiter 96® AQueous One Solution Cell Proliferation MTS Assay (Promega, Madison Wis.) 96 hours after treatment. Relative cell viability was determined as percentage of untreated control.

BT474 (breast cancer) = settings: Homo sapiens, BT-474, BT474 cells; geometric mean; cytotoxic peptides; read-out: BT474 GMEAN IC50
Procedure: as §1

[1] = system: MDA-MB-361-DYT2 (breast cancer); settings: read-out: MDA-MB-361-DYT2 GMEAN IC50, MDA-MB-361-DYT2 cells; geometric mean; cytotoxic peptides
Procedure: as §1

SMILES	IC50 (N87 (gastric cancer))	IC50 (BT474 (breast cancer))	IC50 [1]
C=CCOC(=O)[C@H](Cc1ccccc1)NC(=O)[C@H](C)[C@@H](OC)[C@@H]1CCCN1C(=O)C[C@@H](OC)[C@H]([C@@H](C)CC)N(C)C(=O)[C@@H](NC(=O)C(C)(C)NC)C(C)C [#238] (H-[NMeAib]V[Dil][Dolaproine]F-OAll)	0.077 nM	0.139 nM	
CC[C@H](C)[C@@H]([C@@H](CC(=O)N1CCC[C@H]1[C@H](OC)[C@@H](C)C(=O)N[C@@H](Cc1ccccc1)C(=O)OC)OC)N(C)C(=O)[C@@H](NC(=O)[C@@](C)(N)CC)C(C)C [#148, L-isovalyl-N-{(1S,2R)-4-{(2S)-2-[(1R,2R)-3-{[(1S)-1-benzyl-2-methoxy-2-oxoethyl]amino}-1-methoxy-2-methyl-3-oxopropyl]pyrrolidin-1-yl}-2-methoxy-1-[(1S)-1-methylpropyl]-4-oxobutyl}-N-methyl-L-valinamide] (H-[Iva]V[Dil][Dolaproine]F-OMe)		0.429 nM	
CC[C@H](C)[C@@H]([C@@H](CC(=O)N1CCC[C@H]1[C@H](OC)[C@@H](C)C(=O)N[C@@H](Cc1ccccc1)C(=O)O)OC)N(C)C(=O)[C@@H](NC(=O)C(C)(C)N)C(C)C [#69, 2-methylalanyl-N-[(3R,4S,5S)-1-{(2S)-2-[(1R,2R)-3-{[(1S)-1-carboxy-2-phenylethyl]amino}-1-methoxy-2-methyl-3-oxopropyl]pyrrolidin-1-yl}-3-methoxy-5-methyl-1-oxoheptan-4-yl]-N-methyl-L-valinamide] (H-[Aib]V[Dil][Dolaproine]F-OH)	66 nM	80.2 nM	
CC[C@H](C)[C@@H]([C@@H](CC(=O)N1CCC[C@H]1[C@H](OC)[C@@H](C)C(=O)N[C@@H](Cc1ccccc1)C(=O)OC)OC)N(C)C(=O)[C@@H](NC(=O)C(C)(C)N(C)C)C(C)C [#228] (X4-V[Dil][Dolaproine]F-OMe)	0.09 nM	0.105 nM	
CC[C@H](C)[C@@H]([C@@H](CC(=O)N1CCC[C@H]1[C@H](OC)[C@@H](C)C(=O)N[C@@H](Cc1ccccc1)C(=O)OC)OC)N(C)C(=O)[C@@H](NC(=O)[C@@]1(C)CCCCN1)C(C)C (single isomer, unassigned) [#159]	0.075 nM	0.07 nM	
CC[C@H](C)[C@@H]([C@@H](CC(=O)N1CCC[C@H]1[C@H](OC)[C@@H](C)C(=O)NCCC1C=CC=CC=C1)OC)N(C)C(=O)[C@@H](NC(=O)[C@@]1(C)CCCN1)C(C)C [#247] (H-[d(αMeP)]V[Dil][Dolaproine]-X8)	2.06 nM	1.01 nM	
CC[C@H](C)[C@@H]([C@@H](CC(=O)N1CCC[C@H]1[C@H](OC)[C@@H](C)C(=O)N[C@@H](Cc1ccccc1)C(=O)OC)OC)N(C)C(=O)[C@@H](NC(=O)[C@](C)(N)C(C)C)C(C)C [#146, 3-methyl-D-isovalyl-N-{(1S,2R)-4-{(2S)-2-[(1R,2R)-3-{[(1S)-1-benzyl-2-methoxy-2-oxoethyl]amino}-1-methoxy-2-methyl-3-oxopropyl]pyrrolidin-1-yl}-2-methoxy-1-[(1S)-1-methylpropyl]-4-oxobutyl}-N-methyl-L-valinamide] (H-[d(αMeV)]V[Dil][Dolaproine]F-OMe)	0.195 nM	0.435 nM	
CC[C@H](C)[C@@H]([C@@H](CC(=O)N1CCC[C@H]1[C@H](OC)[C@@H](C)C(=O)N[C@@H](Cc1ccccc1)C(N)=O)OC)N(C)C(=O)[C@@H](NC(=O)C(C)(C)NC)C(C)C [#141, N,2-dimethylalanyl-N-{(1S,2R)-4-{(2S)-2-[(1R,2R)-3-{[(1S)-2-amino-1-benzyl-2-oxoethyl]amino}-1-methoxy-2-methyl-3-oxopropyl]pyrrolidin-1-yl}-2-methoxy-1-[(1S)-1-methylpropyl]-4-oxobutyl}-N-methyl-L-valinamide] (H-[NMeAib]V[Dil][Dolaproine]F-NH2)	3.02 nM	3.37 nM	
CC[C@H](C)[C@@H]([C@@H](CC(=O)N1CCC[C@H]1[C@H](OC)[C@@H](C)C(=O)N[C@@H](Cc1ccccc1)C(=O)OC)OC)N(C)C(=O)[C@@H](NC(=O)[C@@]1(C)CCCN1)C(C)C [#131, 2-methyl-D-prolyl-N-[(3R,4S,5S)-3-methoxy-1-{(2S)-2-[(1R,2R)-1-methoxy-3-{[(2S)-1-methoxy-1-oxo-3-phenylpropan-2-yl]amino}-2-methyl-3-oxopropyl]pyrrolidin-1-yl}-5-methyl-1-oxoheptan-4-yl]-N-methyl-L-valinamide] (H-[d(αMeP)]V[Dil][Dolaproine]F-OMe)		0.072 nM	
CCCNC(=O)[C@H](Cc1ccccc1)NC(=O)[C@H](C)[C@@H](OC)[C@@H]1CCCN1C(=O)C[C@@H](OC)[C@H]([C@@H](C)CC)N(C)C(=O)[C@@H](NC(=O)C(C)(C)NC)C(C)C [#142, N,2-dimethylalanyl-N-{(1S,2R)-4-{(2S)-2-[(1R,2R)-3-{[(1S)-1-benzyl-2-oxo-2-(propylamino)ethyl]amino}-1-methoxy-2-methyl-3-oxopropyl]pyrrolidin-1-yl}-2-methoxy-1-[(1S)-1-methylpropyl]-4-oxobutyl}-N-methyl-L-valinamide] (H-[NMeAib]V[Dil][Dolaproine]F-NHPr)		0.279 nM	
CC[C@H](C)[C@@H]([C@@H](CC(=O)N1CCC[C@H]1[C@H](OC)[C@@H](C)C(=O)N[C@@H](C(=O)OC)C1(c2ccccc2)CC1)OC)N(C)C(=O)[C@@H](NC(=O)C(C)(C)N)C(C)C [#222] (H-[Aib]V[Dil][Dolaproine][X2]-OMe)	0.352 nM	0.158 nM	
CC[C@H](C)[C@@H]([C@@H](CC(=O)N1CCC[C@H]1[C@H](OC)[C@@H](C)C(=O)N[C@@H](Cc1ccccc1)c1nccs1)OC)N(C)C(=O)[C@@H](NC(=O)[C@@]1(C)CCCCN1)C(C)C [#190, (2R)—N-[(2S)-1-{[(3R,4S,5S)-3-methoxy-1-{(2S)-2-[(1R,2R)-1-methoxy-2-methyl-3-oxo-3-{[(1S)-2-phenyl-1-(1,3-thiazol-2-yl)ethyl]amino}propyl]pyrrolidin-1-yl}-5-methyl-1-oxoheptan-4-yl](methyl)amino}-3-methyl-1-oxobutan-2-yl]-2-methylpiperidine-2-carboxamide]	0.066 nM	0.134 nM	
CC[C@H](C)[C@@H]([C@@H](CC(=O)N1CCC[C@H]1[C@H](OC)[C@@H](C)C(=O)N[C@@H](Cc1ccccc1)c1nccs1)OC)N(C)C(=O)[C@@H](NC(=O)C(C)(C)N)C(C)C [#54, 2-methylalanyl-N-[(3R,4S,5S)-3-methoxy-1-{(2S)-2-[(1R,2R)-1-methoxy-2-methyl-3-oxo-3-{[(1S)-2-phenyl-1-(1,3-thiazol-2-yl)ethyl]amino}propyl]pyrrolidin-1-yl}-5-methyl-1-oxoheptan-4-yl]-N-methyl-L-valinamide] (H-[Aib]V[Dil][Dolaproine]-Doe)	< 0.221 nM	< 0.133 nM	
CC[C@H](C)[C@@H]([C@@H](CC(=O)N1CCC[C@H]1[C@H](OC)[C@@H](C)C(=S)NCCc1ccccc1)OC)N(C)C(=O)[C@@H](NC(=O)[C@@H](NC)C(C)C)C(C)C [#36, N-methyl-L-valyl-N-{(3R,4S,5S)-3-methoxy-1-[(2S)-2-{(1R,2R)-1-methoxy-2-methyl-3-[(2-phenylethyl)amino]-3-thioxopropyl}pyrrolidin-1-yl]-5-methyl-1-oxoheptan-4-yl}-N-methyl-L-valinamide]	1.21 nM		1.11 nM
CC[C@H](C)[C@@H]([C@@H](CC(=O)N1CCC[C@H]1[C@H](OC)[C@@H](C)C(=O)N[C@@H](Cc1ccccc1)C(=O)O)OC)N(C)C(=O)[C@@H](NC(=O)[C@@]1(C)CCCN1C)C(C)C [#153, 1,2-dimethyl-D-prolyl-N-{(1S,2R)-4-{(2S)-2-[(1R,2R)-3-{[(1S)-1-carboxy-2-phenylethyl]amino}-1-methoxy-2-methyl-3-oxopropyl]pyrrolidin-1-yl}-2-methoxy-1-[(1S)-1-methylpropyl]-4-oxobutyl}-N-methyl-L-valinamide] (X1-V[Dil][Dolaproine]F-OH)	47.3 nM		91.3 nM
CC[C@H](C)[C@@H]([C@@H](CC(=O)N1CCC[C@H]1[C@H](OC)[C@@H](C)C(=O)N[C@H](C(=O)OC)[C@H]1Cc2ccccc21)OC)N(C)C(=O)[C@@H](NC(=O)C(C)(C)N)C(C)C [#225] (H-[Aib]V[Dil][Dolaproine][X11]-OMe)	10.5 nM	3.45 nM	
CC[C@H](C)[C@@H]([C@@H](CC(=O)N1CCC[C@H]1[C@H](OC)[C@@H](C)C(=O)N[C@H](C)[C@@H](O)c1ccccc1)OC)N(C)C(=O)[C@@H](NC(=O)[C@]1(C)CCCN1)C(C)C [#134, 2-methyl-L-prolyl-N-[(3R,4S,5S)-1-{(2S)-2-[(1R,2R)-3-{[(1S,2R)-1-hydroxy-1-phenylpropan-2-yl]amino}-1-methoxy-2-methyl-3-oxopropyl]pyrrolidin-1-yl}-3-methoxy-5-methyl-1-oxoheptan-4-yl]-N-methyl-L-valinamide] (H-[αMeP]V[Dil][Dolaproine]-X10)	0.115 nM		0.134 nM
CC[C@H](C)[C@@H]([C@@H](CC(=O)N1CCC[C@H]1[C@H](OC)[C@@H](C)C(=O)N[C@@H](Cc1ccc(N)cc1)C(=O)OC)OC)N(C)C(=O)[C@@H](NC(=O)[C@]1(C)CCCN1C)C(C)C [#208, 1,2-dimethyl-L-prolyl-N-[(3R,4S,5S)-1-{(2S)-2-[(1R,2R)-3-{[(2S)-3-(4-aminophenyl)-1-methoxy-1-oxopropan-2-yl]amino}-1-methoxy-2-methyl-3-oxopropyl]pyrrolidin-1-yl}-3-methoxy-5-methyl-1-oxoheptan-4-yl]-N-methyl-L-valinamide] (NMeαMePro-V[Dil][Dolaproine][Phe(4-NH2)]-OMe)	0.379 nM		0.336 nM

— patent publication US8828401B2, “Cytotoxic peptides and antibody drug conjugates thereof” (Pfizer Inc., priority 2011, dated 2014)
